This passage reports LD50 and IC50 results from patent US20100286424A1 (priority 2007, published 2010).

The IC50 is the concentration at which inhibition is half-maximal. A higher IC50 goes with a need for much substance.

In one data set the test system is mouse. The conditions noted are these: in vivo, po; cited from earlier work.
In the next data set the test system is cell growth. The class given is cell-based.

On to `C[As+](C)(C)CC(=O)[O-]` [AB, arsenobetaine], for which the LD50 with mouse was 10,000 mg/kg. Arsenic acid: the half-inhibitory concentration (IC50) with cell growth came to 100 µM.

Regarding Arsenious acid, the IC50 with cell growth was 10 µM.
